Assay results published in publication PMC11341359, “Assessing the immunogenicity risk of salmon calcitonin peptide impurities using in silico and in vitro methods” (Frontiers in Pharmacology, 2024).
pIC50: −log10 of the molar value. Bridge positions count the residues as written; N and C are the ends. Ends that are not written are not given here. Peptide text beside a SMILES is read from it.

Key:
[1] = molecular target: T1, HLA DRB1*0301 (Homo sapiens, UniProt P01903+P01911, A100K/A102G/A103R/A169T/F55Y/I96L/K41T/L162R/M171V/P40S/Q125H/Q178H/Q39Y/R42S/S66N/T106N/T262R/W38E/Y61H); assay: Class II HLA competition binding assay; conditions: short assay peptides (Cys7 replaced with Ser), competition with biotinylated allele-specific peptide, soluble HLA DR, overnight, time-resolved fluorescence, triplicate, seven concentrations; for IC50, HLA DRB1*0301: unit not given
T1 construct: incubated overnight to equilibrium with a soluble HLA DR molecule; purchased Benaroya Research Institute, Seattle, Washington
Protocol: (§1) The class II HLA binding assays performed for these studies measure the binding affinity of a target peptide to HLA DRB1*0101, *0301, *0401, *0701, *0901, *1101, *1301, and *1501 in a standardized competition assay. This assay was originally described by [Steere et al. (2006)] and adapted by EpiVax. Previous publications have described the assay in detail ([McMurry et al., 2007]; [Ardito et al., 2011]). Briefly, unlabeled test peptides are incubated overnight to equilibrium with a soluble HLA DR molecule (Benaroya Research Institute, Seattle, Washington) and a biotinylated, allele-specific competitor peptide. The binding reaction is then neutralized, and peptide–HLA complexes are transferred to a 96-well plate coated with the pan-HLA DR antibody, clone L243 (BioLegend), and incubated overnight. The following day, Europium-labeled streptavidin (PerkinElmer, Waltham, MA) is added to identify the peptide–HLA complexes. An indirect measure of binding is determined by time-resolved fluorescence. Each peptide–HLA binding reaction is evaluated in triplicate over a range of seven concentrations. The percent inhibition values at seven distinct concentrations are used to calculate the IC50 value, defined as the concentration at which the test peptide inhibits 50% of the labeled competitor peptide.
(§2) Peptides that bind to the HLA at an IC50 value of 100 nM or less are considered very high-affinity binders. Peptides that bind at IC50 values ranging from 100 nM to 1,000 nM are considered high-affinity binders. Peptides that bind at IC50 values ranging from 1,000 nM to 10,000 nM are considered moderate-affinity binders. Peptides that bind at IC50 values ranging from 10,000 nM to 100,000 nM are considered low-affinity binders, and those with IC50 values ranging from 100,000 nM to 1,000,000 nM are considered negligible-affinity binders. […] We note that these concentrations are specific for the in vitro HLA-binding assay and are used to compare the relative binding affinities of the impurity sequences to the API and independent from the peptide concentrations described for the in vitro T-cell assays described below.

[2] = molecular target: T2, HLA DRB1*0101 (Homo sapiens, UniProt P01903+P01911, A100R/D57E/F55L/F60I/F76Y/I96L/L162R/M171V/P40L/Q125E/R42F/V115G/Y59C); assay: Class II HLA competition binding assay; conditions: short assay peptides (Cys7 replaced with Ser), competition with biotinylated allele-specific peptide, soluble HLA DR, overnight, time-resolved fluorescence, triplicate, seven concentrations
T2 construct: incubated overnight to equilibrium with a soluble HLA DR molecule; purchased Benaroya Research Institute, Seattle, Washington
Protocol: as §1, §2

[3] = molecular target: HLA DRB1*0901 (Homo sapiens, UniProt P01903+P01911, A100R/A103E/D57H/D86V/F55Y/F60I/F76Y/I96F/K127E/L162R/M171V/P40D/Q125H/Q99R/R33Q/R42F/S133A/S66N/T210M/V115G/W38K/Y107V/Y59G/Y89S); assay: Class II HLA competition binding assay; conditions: short assay peptides (Cys7 replaced with Ser); competition with biotinylated allele-specific peptide, soluble HLA DR, overnight, time-resolved fluorescence, triplicate, seven concentrations
Protocol: as §1, §2

[4] = molecular target: HLA DRB1*0701 (Homo sapiens, UniProt P01903+P01911, A100R/A102G/A103Q/D57E/D86V/E43K/F76Y/K127E/L162R/M171V/P40G/Q125H/Q99D/R33Q/R42Y/R54Q/S133A/S66F/T210M/V115G/Y107V/Y59L/Y89S); assay: Class II HLA competition binding assay; conditions: short assay peptides (Cys7 replaced with Ser); competition with biotinylated allele-specific peptide, soluble HLA DR, overnight, time-resolved fluorescence, triplicate, seven concentrations
Protocol: as §1, §2

[5] = molecular target: T3, HLA DRB1*1301 (Homo sapiens, UniProt P01903+P01911, A100E/A169T/K41T/L162R/M171V/P40S/Q125H/Q178H/Q39Y/Q99D/R42S/S66N/T262R/W38E/Y61H); assay: Class II HLA competition binding assay; conditions: short assay peptides (Cys7 replaced with Ser), competition with biotinylated allele-specific peptide, soluble HLA DR, overnight, time-resolved fluorescence, triplicate, seven concentrations
T3 construct: incubated overnight to equilibrium with a soluble HLA DR molecule; purchased Benaroya Research Institute, Seattle, Washington
Protocol: as §1, §2

[6] = molecular target: T4, HLA DRB1*1101 (Homo sapiens, UniProt P01903+P01911, A100R/A169T/A87E/I96F/K41T/L162R/M171V/P40S/Q125H/Q178H/Q39Y/Q99D/R42S/S66Y/T262R/V115G/W38E); assay: Class II HLA competition binding assay
T4 construct: incubated overnight to equilibrium with a soluble HLA DR molecule; purchased Benaroya Research Institute, Seattle, Washington
Protocol: as §1, §2

[7] = molecular target: T5, HLA DRB1*1501 (Homo sapiens, UniProt P01903+P01911); assay: Class II HLA competition binding assay
T5 construct: incubated overnight to equilibrium with a soluble HLA DR molecule; purchased Benaroya Research Institute, Seattle, Washington
Protocol: as §1, §2

[8] = molecular target: T6, HLA DRB1*0401 (Homo sapiens, UniProt P01903+P01911, A100K/A169T/F76Y/I96L/K127E/L162R/M171V/N62H/P40V/Q125Y/R42H/S133A/S149N/S66Y/V115G/V209L/W38E); assay: Class II HLA competition binding assay; conditions: short assay peptides (Cys7 replaced with Ser); competition with biotinylated allele-specific peptide, soluble HLA DR, overnight, time-resolved fluorescence, triplicate, seven concentrations
T6 construct: incubated overnight to equilibrium with a soluble HLA DR molecule; purchased Benaroya Research Institute, Seattle, Washington
Protocol: as §1, §2

[9] = system: human donor PBMCs; assay: In vitro immunogenicity protocol (IVIP) naïve T-cell assay, IFNγ FluoroSpot; type: cell-based; conditions: individual full-length peptides at 20 μg/mL, 14 days, then 48 h IFNγ FluoroSpot; 16 donors; positive: SFC > 50 per 10^6, SI ≥ 2, p < 0.05 vs medium
Protocol: To improve the sensitivity of the T-cell assays, fresh (not frozen) blood samples were obtained from human blood donors for the T-cell assays (internal observations). Specifically, PBMCs were isolated from leukocyte reduction filters obtained from the Rhode Island Blood Center (RIBC) in Providence, RI. To confirm the sufficient breadth of HLA coverage in the donor cohort, high-resolution (4-digit) class II HLA haplotyping of donors was performed at the Transplant Immunology Laboratory at Hartford Hospital in Hartford, CT, using the sequence-specific oligonucleotide method (SSP-PCR). […] supertype alleles were expressed by the donor PBMCs used in the assays reported here (HLA DRB1*0301, *0401, *0701, *1101, *1301, and *1501). The HLA identified for the cohort of subjects used in this study is representative of 81.81% of the HLA alleles expressed by the global population. Forty percent of the donors were female and 60% of the donors were male, and their ages ranged from 17 to 83 years. Donor cohort demographic information and HLA types for each donor are provided in Supplementary Figure S1. To measure the naïve T-cell response to salmon calcitonin and impurity peptides, cells were plated at a density of 2.5 × 10^5 cells per well in 96-well U-bottom cell plates in RPMI 1640 cell culture medium supplemented with IL-2 (10 ng/mL) and IL-7 (20 ng/mL) (Gibco). The cells were incubated with […]®, or a synthetic salmon calcitonin peptide, or individual peptide impurities, at a concentration of 20 μg/mL for 14 days at 37°C/5% CO2, with medium exchanges that include cytokine support (IL-2 and IL-7) on days 4, 7, and 11. A concentration of 20 μg/mL (5.8 μM) was the dose selected for the SCT API and the four selected impurities, following a dose-ranging study performed with […]® to determine the maximum dose at which a T-cell response could be observed with no observed toxicity to the cells. The dose-ranging study was performed following the same protocol as described above. The following control antigens were used in the T-cell assays for each of the PBMC samples: positive controls, keyhole limpet hemocyanin (KLH; Thermo Fisher), and the antigenic peptide pool CEFT (ImmunoSpot). In addition, human serum albumin (HSA; Sigma-Aldrich) was used as a negative control antigen, and phytohemagglutinin (PHA; Thermo Fisher), a T-cell mitogen, was used to confirm T-cell functionality. […] Responses were considered positive if (1) the number of spots was at least twice the background (stimulation index [SI] ≥ 2); (2) there were greater than 50 spot-forming cells (SFCs) per 1.0 × 10^6 PBMCs; and (3) responses were statistically different from the media (Student's t-test). Each of the test articles (SCT API, RLD, or impurity peptide) and each of the positive and negative controls were evaluated in nine replicate wells containing donor PBMCs. Following the 14-day incubation, cells in the nine replicate wells were collected, pooled by the treatment condition, and re-plated in triplicate on a precoated anti-human IFNγ FluoroSpot plate (Mabtech) at a concentration of 1.0 × 10^5 cells per well in the presence of an appropriate test article or control reagent in supplemented RPMI 1640 culture medium. The FluoroSpot plates were incubated for 48 h at 37°C/5% CO2. After 48 h, FluoroSpot plates were developed according to the manufacturer's directions. Spots were counted on an iSpot Spectrum FluoroSpot reading system (AID, Strassberg, Germany) using software 7.0, build 14790. Fluorophore-specific spot parameters were defined using the spot size, spot intensity, and spot gradient. A spot separation algorithm was applied for optimal spot detection. Analysis and counting of spots were performed by unbiased experts at ZellNet Consulting, Inc. (Fort Lee, NJ).

[10] = short assay peptides (Cys7 replaced with Ser), competition with biotinylated allele-specific peptide, soluble HLA DR, overnight, time-resolved fluorescence, triplicate, seven concentrations, unit inferred
[11] = class by IC50, short assay peptides

`CC(C)C[C@H](NC(=O)[C@H](CCCCN)NC(=O)CNC(=O)[C@H](CC(C)C)NC(=O)[C@@H](NC(=O)[C@H](CO)NC(=O)[C@@H](NC(=O)[C@@H](N)CO)[C@@H](C)O)C(C)C)C(=O)N[C@@H](CO)C(=O)N[C@@H](CCC(N)=O)C(=O)N[C@@H](CCC(=O)O)C(=O)N[C@@H](CC(C)C)C(=O)N[C@@H](Cc1c[nH]cn1)C(=O)N[C@@H](CCCCN)C(=O)N[C@@H](CC(C)C)C(=O)N[C@@H](CCC(N)=O)C(=O)N[C@H](C(=O)N[C@@H](Cc1ccc(O)cc1)C(=O)O)[C@@H](C)O` [API SCT(5-22)] (H-STSVLGKLSQELHKLQTY-OH) was tested, and the pIC50 ([1]; unit inferred) was less than 3.00, the pIC50 ([2]; unit inferred) was 4.95 and the pIC50 [3] was less than 3.00. The pIC50 [4] was less than 3.00, the pIC50 ([5]; unit inferred) was less than 3.00 and the pIC50 [6, 10] was 3.98. It also gave a pIC50 [7, 10] of 4.02 and a pIC50 [8] of less than 3.00.
`CC(C)C[C@H](NC(=O)[C@H](CCCCN)NC(=O)[C@@H](N)Cc1c[nH]cn1)C(=O)N[C@@H](CCC(N)=O)C(=O)N[C@H](C(=O)N[C@@H](Cc1ccc(O)cc1)C(=O)N1CCC[C@H]1C(=O)N[C@@H](CCCNC(=N)N)C(=O)N[C@H](C(=O)N[C@H](C(=O)NCC(=O)N[C@@H](CO)C(=O)NCC(=O)N[C@H](C(=O)O)[C@@H](C)O)[C@@H](C)O)[C@@H](C)O)[C@@H](C)O` [DES-ASN26_SCT(17-31)] (H-HKLQTYPRTTGSGT-OH; N-terminus and C-terminus assumed) was tested, and the “IC50, HLA DRB1*0301” value [1] was “no binding”, the “IC50, HLA DRB1*0101” value ([2]; unit not given) was “no binding” and the “IC50, HLA DRB1*0901” value [3] was “no binding”. The “binding affinity class, HLA DRB1*1101” value [6, 11] was “negligible affinity”, the “binding affinity class, HLA DRB1*1501” value [7, 11] was “moderate affinity” and the “IC50, HLA DRB1*0401” value [8] was “no binding”.
In the case of `CC(C)C[C@H](NC(=O)[C@H](CCC(=O)O)NC(=O)[C@H](CCC(N)=O)NC(=O)[C@@H](N)CO)C(=O)N[C@@H](Cc1c[nH]cn1)C(=O)N[C@@H](CCCCN)C(=O)N[C@@H](CC(C)C)C(=O)N[C@@H](CCC(N)=O)C(=O)N[C@@H](Cc1ccc(O)cc1)C(=O)N1CCC[C@H]1C(=O)N[C@@H](CCCNC(=N)N)C(=O)N[C@H](C(=O)N[C@@H](CC(N)=O)C(=O)N[C@H](C(=O)NCC(=O)N[C@@H](CO)C(=O)NCC(=O)N[C@H](C(=O)O)[C@@H](C)O)[C@@H](C)O)[C@@H](C)O` [DES-THR21_SCT(13-27)] (H-SQELHKLQYPRTNTGSGT-OH; N-terminus and C-terminus assumed), the “IC50, HLA DRB1*0301” value [1] was “did not bind”, the “IC50, HLA DRB1*1301” value ([5]; unit not given) was “did not bind” and the “IC50, HLA DRB1*0401” value [8] was “did not bind”.
In the case of “CSNLSTCVLGKLSQELH (Ac-K) LQTYPRTNTGSGTP (disulfide) [06-LYS-AC18_SCT_18X, full-length SCT impurity, acetylation of lysine 18]”, the “Percentage of Responding Donors” value [9] was 56% and the “Responding Donors” value [9] was 9.
With “CSNLSTCVLGKLSQELHKLETYPRTNTGSGTP (disulfide) (disulfide 1-7 (inferred)) [07_Q20E_SCT, full-length SCT impurity, glutamine 20 deamidated to glutamic acid]” the “Percentage of Responding Donors” value [9] was 56% and the “Responding Donors” value [9] was 9.
In the case of “CSNLSTCVLGKLSQELHKLQTYPRTNTGGSGTP (disulfide 1-7 (inferred)) [12_ENDO-GLY28_SCT, full-length SCT impurity, insertion of glycine at position 28]”, the “Percentage of Responding Donors” value [9] was 63% and the “Responding Donors” value [9] was 10.
For “CSNLSTCVLGKLSQELHKLQTYPRTNTGSGTTP (disulfide 1-7 (inferred)) [17_ENDO-THR31_SCT, full-length SCT impurity, insertion of threonine at position 31]”, the “Percentage of Responding Donors” value [9] was 69% and the “Responding Donors” value [9] was 11.
